According to US20210292736A1, “PROTEIN LABELLING” (The Provost, Fellows, Scholars and other Members of Board …, priority 2020, published 2021):

Assays:
[1] = target: T1, UCHL1 (Homo sapiens, UniProt P09936); experiment: Eosin Y visible light-mediated labelling of recombinant UCHL1; type: biochemical; details: UCHL1 2 μg, probe 1 3 μg; 10 W white light from 50 cm vs UV 365 nm
T1 sequence (P09936 1-223): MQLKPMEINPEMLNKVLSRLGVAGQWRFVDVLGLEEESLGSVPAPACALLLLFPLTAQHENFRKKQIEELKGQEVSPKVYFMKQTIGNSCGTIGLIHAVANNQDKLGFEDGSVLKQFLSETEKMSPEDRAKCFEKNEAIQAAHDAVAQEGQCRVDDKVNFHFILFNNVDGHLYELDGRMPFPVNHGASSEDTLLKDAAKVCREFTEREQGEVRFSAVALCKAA
Method: (§1) FIG. 18—comparative analysis of labelling using Eosin Y as the initiator relative to DPAP and MAP for recombinant enzymes OTUB1 (2 μg) and UCHL1 (2 μg), lanes 2-4 and 5-7, with probe 1 (3 μg) visualised by anti-HA western blot. Samples were preincubated for 90 min at 37° C. Lanes 3 and 6 were degassed for 2 min using N2 before the addition of DPAP and MAP or Eosin Y to the indicated samples. A further incubation was carried out for 10 min at 37° C. while lanes 3 and 6 were exposed to UV light (365 nm) and lanes 4, and 7 were exposed to a 10 W white light lamp from 50 cm.
Once optimised, a comparative labelling was carried out between these optimised Eosin Y labelling conditions versus the conditions optimised for DPAP and MAP labelling (FIG. 18). At this point to check the generality of the method, a further DUB, UCHL1 was tested alongside OTUB1.
Probe 1 ([…]) was incubated with OTUB1 (0.2 μL, 13.78 μg/μL, in storage buffer) or UCHL1 (3.3 μL, 0.9 μg/μL, in storage buffer). The final volume of the labelling was adjusted to 30 μL with homogenisation buffer containing TCEP (1 mM). A stock solution of Eosin Y (0.29 mM in DMSO—homogenisation buffer, 4:1) was prepared fresh before use and protected from light. The reaction was preincubated for 90 min at 37° C. with gentle shaking before the addition of Eosin Y (0.5 μL of stock for recombinant enzyme labelling, final conc.=5 μM). […]

[2] = target: recombinant DUB OTUB1 (Homo sapiens, UniProt Q96FW1); experiment: Eosin Y visible light-mediated labelling of recombinant OTUB1; type: biochemical; set-up: His; details: OTUB1 2 μg, probe 1 3 μg; 10 W white light from 50 cm vs UV 365 nm
Method: FIG. 13—labelling of OTUB1 (2 μg) with probe 1 (3 μg) visualised by anti-HA western blot. Samples were preincubated for 90 min at 37° C. before the addition of Eosin Y. Samples were incubated for a further 10 min at 37° C. in the dark (lane 3) in ambient light (lane 4) or exposed to a 10 W white light lamp from 10 cm (lane 5).
as §1
Firstly, the reactivity of the probe with the recombinant DUB OTUB1 was assessed using Eosin Y as the sole photoinitiator (FIG. 13). Triethanolamine, or similar coinitiators, could be used in combination with Eosin Y. The reaction was initiated using ambient light or a 10 W white light bulb. As a control, an equivalent sample was kept in darkness for the duration of the experiment. […]

[3] = system: DUBs in HEK 293T cell lysate; experiment: Thiol-ene labelling in HEK293T cell lysate (anti-HA western blot); type: biochemical, H. sapiens; details: NEM 10 mM (FIG. 3A lane 8 vs 4)
Method: Controls included using NEM (10 mM), the Ub75CH2CH2Br probe (1 μg) and a labelling excluding initiators. (B) HEK 293T cell lysate (50 μg) was pre-incubated for varying periods of time with probe 1 (1 μg) before exposure to UV light (365 nm) for 2 min.
After confirming reactivity with a recombinant DUB, probe 1 was tested in HEK293T cell lysate using conditions analogous to those described for the recombinant enzyme labelling (FIG. 3). […] Exposure time to UV light was optimised, with conditions tested from […] (FIG. 3A, lanes 2-7). No labelling is observed at the 0 minute time point (FIG. 3A, lane 2). There is no discernible difference between the 1 minute and 10 minute timepoints (FIG. 3A, lanes 3 and 4). […] Two further control experiments were performed to validate the need for free thiols and to compare to an existing probe. […] Covalent bond formation therefore requires free cysteine residues. A labelling reaction with the known HA-Ub75CH2CH2Br probe was subjected to the same conditions as the thiol-ene labelling to confirm there was no degradation of the lysate under these conditions (FIG. 3A, lanes 9 and 10).
It was next examined how the pre-incubation period affected the labelling pattern (FIG. 3B, lanes 1-5). It was reasoned that prior to activation, a binding equilibrium must be established between the probe and target enzymes to yield the rapid labelling observed. […]

[4] = system: DUBs in HEK293T cell lysate; experiment: PR-619 pre-incubation assay; type: biochemical, H. sapiens; details: lysate pre-incubated with increasing concentrations of PR-619, then probe 1 (1 μg) 90 min, UV 2 min
Method: (§2) (A) HEK 293T cell lysate (50 μg) was pre-incubated for 90 min with increasing concentrations of PR-619 before being labelled with the probe 1 (1 μg). (B) HEK 293T cell lysate (50 μg) was pre-incubated with probe 1 (1 μg) for 90 min before PR-619 was added at increasing concentrations. (C) HEK 293T cell lysate (50 μg) was incubated with Ub75CH2CH2Br and PR 619 (100 μM) was added to one sample. All samples were exposed to UV light (365 nm) for 2 min.
(§3) It was next set out to test the modulation of labelling using the known pan DUB inhibitor, PR-619 (X. Tian, N. S. Isamiddinova, R. J. Peroutka, S. J. Goldenberg, M. R. Mattern, B. Nicholson and C. Leach, Assay Drug Dev Technol, 2011, 9, 165-173). PR-619 was incubated with cell lysate for 30 min prior to the addition of probe 1 and the labelling was then carried out under optimised conditions with a 90 min pre-incubation time. […] This implies specificity of probe 1 towards DUBs. […] PR-619 was titrated into the mixture at increasing concentrations and incubated for a further 30 min before the addition of initiators and exposure to UV light (FIG. 4B). A parallel experiment was set up with the Ub75CH2CH2Br probe for comparison (FIG. 4C). […] (FIG. 4C, lanes 2 and 3). To check the integrity of the probe and cell lysate under these conditions a silver stain of the samples was also performed (FIG. 9). […]

[5] = system: DUBs in HEK293T cell lysate; experiment: PR-619 equilibrium disruption assay; type: biochemical, H. sapiens; details: probe 1 pre-incubated with lysate 90 min, PR-619 titrated 0-100 μM, further 30 min, UV 2 min
Method: as §2, §3

Sequence of recombinant DUB OTUB1 (Q96FW1 whole entry): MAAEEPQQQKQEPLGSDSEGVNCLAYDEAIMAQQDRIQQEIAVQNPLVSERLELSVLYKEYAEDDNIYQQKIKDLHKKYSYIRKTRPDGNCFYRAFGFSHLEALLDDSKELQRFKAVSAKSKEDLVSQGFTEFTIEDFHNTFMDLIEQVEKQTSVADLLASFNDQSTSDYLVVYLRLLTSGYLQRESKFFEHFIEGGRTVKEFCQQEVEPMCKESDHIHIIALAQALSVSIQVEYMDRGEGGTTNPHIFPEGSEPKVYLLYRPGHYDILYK

O=C([O-])c1ccccc1-c1c2cc(Br)c(=O)c(Br)c-2oc2c(Br)c([O-])c(Br)cc12.[Na+].[Na+] [Eosin Y, reference compound]
probe capture with Eosin Y relative to DPAP and MAP [1]: probe capture was comparable | probe capture with Eosin Y relative to DPAP and MAP [2]: probe capture was comparable

CCN1C(=O)C=CC1=O [NEM, N-ethylmaleimide, reference compound]
effect on probe 1 labelling [3]: inhibited labelling

N#CSc1cc(SC#N)c(N)nc1N [PR-619]
effect on probe 1 labelling intensity, inhibitor before probe [4]: concentration-dependent reduction in labelling intensity | effect on probe 1 labelling, inhibitor added after binding equilibrium [5]: abrogates the labelling in a concentration dependent manner
